{
  "source": "patent US7214534B2",
  "about": "“Isolated nucleic acid molecules encoding mutant μ opioid receptors” (Regents of the University of Minnesota, priority 2002, dated 2007)",
  "key": {"[1]": {"biological_target": "T1, μ opioid receptor (wild-type) (Mus musculus, UniProt P42866)", "T1 construct": "Brain membranes were prepared from both wild-type mice; from tissue; host or cells: mouse brain membranes (wild-type littermates)", "assay": "[3H]DAMGO saturation binding (Scatchard analysis), brain membranes of wild-type mice", "protocol": "(§1) Approximately 200–350 μg of membranes were used in each assay."}, "[2]": {"biological_target": "T2, μ opioid receptor S196A mutant (Mus musculus, UniProt P42866, S196A)", "T2 construct": "brain membranes from homozygous Cre/S196A (HOMO) mutant mice; from tissue; host or cells: brain membranes of homozygous Cre/S196A knock-in mice", "T2 sequence (P42866 whole entry S196A)": "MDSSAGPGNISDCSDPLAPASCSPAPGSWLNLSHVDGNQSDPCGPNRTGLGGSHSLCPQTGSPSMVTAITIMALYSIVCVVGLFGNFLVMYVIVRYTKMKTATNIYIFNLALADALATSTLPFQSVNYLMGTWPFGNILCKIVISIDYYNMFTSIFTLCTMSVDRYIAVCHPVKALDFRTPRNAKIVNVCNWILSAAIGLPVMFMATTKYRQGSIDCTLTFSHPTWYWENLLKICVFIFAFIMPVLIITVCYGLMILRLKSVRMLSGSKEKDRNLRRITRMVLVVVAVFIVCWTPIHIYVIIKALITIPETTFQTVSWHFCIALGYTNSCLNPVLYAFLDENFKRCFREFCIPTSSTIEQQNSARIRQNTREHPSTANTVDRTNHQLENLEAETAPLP", "assay": "[3H]DAMGO saturation binding (Scatchard analysis), brain membranes of homozygous Cre/S196A mice", "details": "listed as [^3H]DAMGO", "protocol": "as §1"}, "Cre/S196A mice [3]": {"system": "Cre/S196A mice", "assay": "Acetic acid-induced writhing inhibition test, Cre/S196A mutant mice", "assay_type": "in vivo, mouse", "details": "for ED50: Mus musculus, ip, 0.6% acetic acid i.p.", "protocol": "(§2) Writhing tests were conducted as follows. […] Writhing was counted for 20 minutes following the i.p. injection. At the same time, mice from each genotype were injected with saline s.c. plus acetic acid i.p., and the mean count of writhing of the saline group was calculated. The % MPE for writhing test was calculated by the following formula: (mean count of saline group−count of drug group)*100/(mean count of saline group)."}, "wild-type mice [4]": {"system": "wild-type mice", "assay": "Tail withdrawal antinociception test, wild-type mice", "assay_type": "in vivo, mouse", "details": "for ED50: Mus musculus, 0.5 h, read-out: ED50 tail withdrawal", "protocol": "(§3) For tail withdrawal testing, mice were loosely wrapped in an adsorbent towel, and their tails were immersed about 2 cm into water heated to 53° C. or placed under radiant heat. The latency to tail withdrawal was recorded. A cut-off time of 24 seconds for warm water or 12 seconds for radiant heat was used to minimize tail damage. […] Percent maximum possible effects (% MPE) were calculated by the following formula: (measured latency−baseline latency)*100/(cut-off time−baseline latency). Each dose for each genotype involved 8–12 mice. ED50 values were derived from regression analysis on the linear portion of each dose-response curve or calculated by non-linear regression. A two way analysis of variance (ANOVA) (genotype and dose) was used to determine genetic differences among genotypes in the same dose groups."}, "Cre/S196A mice [5]": {"system": "Cre/S196A mice", "assay": "Tail withdrawal antinociception test, Cre/S196A mutant mice", "details": "for ED50: Mus musculus, radiant heat", "protocol": "as §3"}, "wild-type mice [6]": {"system": "wild-type mice", "assay": "Acetic acid-induced writhing inhibition test, wild-type mice", "assay_type": "in vivo, mouse", "details": "for ED50: Mus musculus, ip, 0.6% acetic acid i.p.", "protocol": "as §2"}, "[7]": {"system": "μ opioid receptor knockout mice", "assay": "Nalorphine antinociception in μ opioid receptor knockout mice", "assay_type": "in vivo, mouse", "details": "μ opioid receptor knockout mice (data not shown)"}, "[8]": {"details": "read-out: ED50 tail withdrawal, homozygous Cre/S196A mice, 30 minutes after morphine and nalorphine, 12 minutes after naloxone injection"}},
  "note": "“And” between values parts separate entries of the source, which are not always exact repeats. Equal entries are not always repeated.",
  "data": [
    {"smiles": "C[C@@H](NC(=O)[C@@H](N)Cc1ccc(O)cc1)C(=O)NCC(=O)N(C)[C@@H](Cc1ccccc1)C(=O)NCCO", "note": "[DAMGO, [D-Ala^1.N-McPhe^4.Gly^5-ol]enkephalin]", "values": [
      {"measurement": "Bmax", "setting": "[1]", "result": "113±4.3", "unit": "fmole/mg-protein"},
      {"measurement": "Bmax", "setting": "[2]", "result": "17.5±2.3 fmol/mg protein and 17.5 fmol/mg protein"}
    ]},
    {"smiles": "CN1CC[C@]23c4c5ccc(O)c4O[C@H]2[C@@H](O)C=C[C@H]3[C@H]1C5", "note": "[morphine]", "values": [
      {"measurement": "ED50", "setting": "Cre/S196A mice [3]; heterozygous Cre/S196A mice", "result": 0.68, "unit": "mg/kg"},
      {"measurement": "ED50", "setting": "Cre/S196A mice [3]; homozygous Cre/S196A mice", "result": 0.5, "unit": "mg/kg"},
      {"measurement": "ED50", "setting": "wild-type mice [4]", "result": 4.4, "unit": "mg/kg"},
      {"measurement": "ED50", "setting": "Cre/S196A mice [5]; read-out: ED50 tail withdrawal, heterozygous Cre/S196A mice", "result": 3.47, "unit": "mg/kg"},
      {"measurement": "ED50", "setting": "Cre/S196A mice [5]; [8]", "result": 3.2, "unit": "mg/kg"},
      {"measurement": "ED50", "setting": "wild-type mice [6]", "result": 0.48, "unit": "mg/kg"}
    ]},
    {"smiles": "C=CCN1CC[C@]23c4c5ccc(O)c4O[C@H]2[C@@H](O)C=C[C@H]3[C@H]1C5", "note": "[nalorphine]", "values": [
      {"measurement": "ED50", "setting": "Cre/S196A mice [3]; homozygous Cre/S196A mice", "result": 0.27, "unit": "mg/kg"},
      {"measurement": "maximal antinociceptive response compared with morphine, inhibition of writhing", "setting": "Cre/S196A mice [3]; homozygous Cre/S196A mice, dose of 1 mg/kg", "result": "same maximal antinociceptive response as morphine"},
      {"measurement": "antinociceptive effect", "setting": "[7]", "result": "absence of nalorphine effect"},
      {"measurement": "ED50", "setting": "wild-type mice [4]", "result": 0.61, "unit": "mg/kg"},
      {"measurement": "maximal response, of the maximal morphine response, tail withdrawal", "setting": "wild-type mice [4]; wild-type mice", "result": "24±5", "unit": "%"},
      {"measurement": "ED50", "setting": "Cre/S196A mice [5]; [8]", "result": 0.89, "unit": "mg/kg"},
      {"measurement": "antinociceptive response, of the morphine maximal response, tail withdrawal", "setting": "Cre/S196A mice [5]; homozygous Cre/S196A mice, maximal dose tested, 10 mg/kg", "result": "68±5", "unit": "%"},
      {"measurement": "maximal response, of the maximal morphine response, writhing", "setting": "wild-type mice [6]", "result": "44±3", "unit": "%"},
      {"measurement": "ED50", "setting": "wild-type mice [6]", "result": 0.37, "unit": "mg/kg"}
    ]},
    {"smiles": "C=CCN1CC[C@]23c4c5ccc(O)c4O[C@H]2C(=O)CC[C@@]3(O)[C@H]1C5", "note": "[naloxone]", "values": [
      {"measurement": "maximal response, of that observed with morphine, writhing inhibition", "setting": "Cre/S196A mice [3]; Cre/S196A mice", "result": "45±3"},
      {"measurement": "ED50", "setting": "Cre/S196A mice [3]; homozygous Cre/S196A mice", "result": 0.22, "unit": "mg/kg"},
      {"measurement": "antinociceptive response, tail withdrawal", "setting": "wild-type mice [4]; wild-type mice, doses of 0.1 to 10 mg/kg", "result": "did not produce significant antinociceptive responses"},
      {"measurement": "ED50", "setting": "Cre/S196A mice [5]; [8]", "result": 1.32, "unit": "mg/kg"},
      {"measurement": "toxic effects", "setting": "Cre/S196A mice [5]; both the mutant and the wild-type mice at higher dosages", "result": "increasing toxic effects"},
      {"measurement": "antinociceptive response, writhing", "setting": "wild-type mice [6]; doses of 0.1 to 10 mg/kg", "result": "did not produce significant antinociceptive responses"}
    ]}
  ]
}
